# Legend:
# NOX1 = molecular target: T1, NOX1 (Homo sapiens, UniProt Q9Y5S8); experiment: NOX inhibition in cell free assay, membranes from cells overexpressing NOX1 (Amplex Red ROS); assay type: biochemical; conditions: cell-free, membranes from NOX1 over-expressing cells
# T1 construct: expressed in transfected cells
# T1 sequence (Q9Y5S8 1-564): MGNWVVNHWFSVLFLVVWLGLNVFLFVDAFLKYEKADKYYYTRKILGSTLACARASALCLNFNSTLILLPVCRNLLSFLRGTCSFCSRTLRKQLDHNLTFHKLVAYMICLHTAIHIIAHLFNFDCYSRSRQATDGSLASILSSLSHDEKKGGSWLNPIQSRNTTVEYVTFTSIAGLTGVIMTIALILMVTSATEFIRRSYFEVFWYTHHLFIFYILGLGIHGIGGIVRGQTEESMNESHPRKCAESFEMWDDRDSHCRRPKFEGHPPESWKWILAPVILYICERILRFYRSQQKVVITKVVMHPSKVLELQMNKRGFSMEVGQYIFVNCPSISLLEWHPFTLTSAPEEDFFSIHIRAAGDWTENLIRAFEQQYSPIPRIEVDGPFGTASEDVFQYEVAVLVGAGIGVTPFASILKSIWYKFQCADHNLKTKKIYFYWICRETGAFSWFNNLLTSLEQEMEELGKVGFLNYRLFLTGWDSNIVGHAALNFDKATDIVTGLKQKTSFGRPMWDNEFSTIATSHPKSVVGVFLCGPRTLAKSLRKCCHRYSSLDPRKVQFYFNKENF
# T1 sequence (P13498 2-195 partner limits assumed): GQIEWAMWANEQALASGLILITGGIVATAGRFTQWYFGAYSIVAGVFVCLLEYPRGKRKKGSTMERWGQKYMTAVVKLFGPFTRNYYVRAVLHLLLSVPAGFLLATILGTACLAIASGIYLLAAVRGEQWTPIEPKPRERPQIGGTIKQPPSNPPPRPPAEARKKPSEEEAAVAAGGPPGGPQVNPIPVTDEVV
# Experimental: (§1) Membranes from NOX2 expressing PMN cells or from cells overexpressing NOX1 or NOX4 were prepared as previously described. After resuspension in sonication buffer (11% sucrose, 120 mM NaCl, 1 mM EGTA in PBS, pH 7.4 for NOX4-expressing cells) or in relax buffer (10 mM Pipes, 3 mM NaCl, 3.5 mM MgCl2, 0.1 M KCl, pH 7.4), cells were broken by sonication and centrifuged (200 g, 10 min). The supernatant was loaded onto a 17/40% (w/v) discontinuous sucrose gradient and centrifuged (150,000 g for 30 min). Membrane fractions were collected and stored at −80°C. ROS production measurements of membranes expressing different NOX subunits was determined as previously described using the Amplex Red method (Invitrogen).
# NOX2 = molecular target: T2, NOX2 (Homo sapiens, UniProt P04839); experiment: NOX inhibition in cell free assay, membranes from NOX2 expressing PMN cells (Amplex Red ROS); assay type: biochemical; conditions: cell-free, membranes from NOX2 expressing PMN cells
# T2 construct: Membranes from NOX2 expressing PMN cells; endogenous in cells; host or cells: PMN cells
# T2 sequence (P04839 2-570 limits assumed): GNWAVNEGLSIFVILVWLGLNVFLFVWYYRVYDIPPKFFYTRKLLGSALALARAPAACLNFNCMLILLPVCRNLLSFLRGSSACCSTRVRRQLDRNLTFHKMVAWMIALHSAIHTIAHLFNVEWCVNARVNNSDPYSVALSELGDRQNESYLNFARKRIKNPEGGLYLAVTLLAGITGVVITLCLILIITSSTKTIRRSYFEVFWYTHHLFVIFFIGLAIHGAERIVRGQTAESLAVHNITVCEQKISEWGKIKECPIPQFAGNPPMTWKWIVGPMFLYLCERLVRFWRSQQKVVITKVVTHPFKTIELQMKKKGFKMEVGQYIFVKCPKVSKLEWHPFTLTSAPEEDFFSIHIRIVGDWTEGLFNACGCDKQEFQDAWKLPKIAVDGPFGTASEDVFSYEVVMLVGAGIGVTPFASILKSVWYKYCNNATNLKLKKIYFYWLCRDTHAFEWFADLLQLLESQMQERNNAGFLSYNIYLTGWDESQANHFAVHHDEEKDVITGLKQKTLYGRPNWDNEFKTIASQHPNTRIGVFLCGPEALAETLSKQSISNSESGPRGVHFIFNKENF
# T2 sequence (P13498 2-195 partner limits assumed): T1 sequence (P13498 2-195 partner limits assumed)
# Experimental: as §1
# NOX4 = molecular target: T3, NOX4 (Homo sapiens, UniProt Q9NPH5); experiment: NOX inhibition in cell free assay, membranes from cells overexpressing NOX4 (Amplex Red ROS); assay type: biochemical; conditions: cell-free, membranes from NOX4 over-expressing cells
# T3 construct: expressed in transfected cells
# T3 sequence (Q9NPH5 whole entry, species assumed, one chain of several): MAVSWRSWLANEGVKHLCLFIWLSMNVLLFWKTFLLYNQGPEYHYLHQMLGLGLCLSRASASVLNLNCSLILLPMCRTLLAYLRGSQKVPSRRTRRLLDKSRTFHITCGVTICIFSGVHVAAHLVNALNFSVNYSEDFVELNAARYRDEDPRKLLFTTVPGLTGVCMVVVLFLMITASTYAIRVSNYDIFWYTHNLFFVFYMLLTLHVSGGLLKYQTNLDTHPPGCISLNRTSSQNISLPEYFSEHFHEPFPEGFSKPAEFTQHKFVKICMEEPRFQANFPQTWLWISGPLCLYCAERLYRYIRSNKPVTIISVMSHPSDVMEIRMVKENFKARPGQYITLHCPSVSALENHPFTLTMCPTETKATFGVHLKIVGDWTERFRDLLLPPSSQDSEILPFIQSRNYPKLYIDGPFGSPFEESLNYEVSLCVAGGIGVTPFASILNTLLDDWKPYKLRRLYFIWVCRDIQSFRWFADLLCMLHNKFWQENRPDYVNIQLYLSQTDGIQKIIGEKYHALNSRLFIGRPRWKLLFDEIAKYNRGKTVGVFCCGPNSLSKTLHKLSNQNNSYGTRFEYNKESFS
# Experimental: as §1
# xanthine oxidase = xanthine oxidase (Homo sapiens, UniProt P47989); experiment: Xanthine oxidase inhibition, concentration-response; assay type: biochemical
# Chain of xanthine oxidase (P47989 whole entry, species assumed): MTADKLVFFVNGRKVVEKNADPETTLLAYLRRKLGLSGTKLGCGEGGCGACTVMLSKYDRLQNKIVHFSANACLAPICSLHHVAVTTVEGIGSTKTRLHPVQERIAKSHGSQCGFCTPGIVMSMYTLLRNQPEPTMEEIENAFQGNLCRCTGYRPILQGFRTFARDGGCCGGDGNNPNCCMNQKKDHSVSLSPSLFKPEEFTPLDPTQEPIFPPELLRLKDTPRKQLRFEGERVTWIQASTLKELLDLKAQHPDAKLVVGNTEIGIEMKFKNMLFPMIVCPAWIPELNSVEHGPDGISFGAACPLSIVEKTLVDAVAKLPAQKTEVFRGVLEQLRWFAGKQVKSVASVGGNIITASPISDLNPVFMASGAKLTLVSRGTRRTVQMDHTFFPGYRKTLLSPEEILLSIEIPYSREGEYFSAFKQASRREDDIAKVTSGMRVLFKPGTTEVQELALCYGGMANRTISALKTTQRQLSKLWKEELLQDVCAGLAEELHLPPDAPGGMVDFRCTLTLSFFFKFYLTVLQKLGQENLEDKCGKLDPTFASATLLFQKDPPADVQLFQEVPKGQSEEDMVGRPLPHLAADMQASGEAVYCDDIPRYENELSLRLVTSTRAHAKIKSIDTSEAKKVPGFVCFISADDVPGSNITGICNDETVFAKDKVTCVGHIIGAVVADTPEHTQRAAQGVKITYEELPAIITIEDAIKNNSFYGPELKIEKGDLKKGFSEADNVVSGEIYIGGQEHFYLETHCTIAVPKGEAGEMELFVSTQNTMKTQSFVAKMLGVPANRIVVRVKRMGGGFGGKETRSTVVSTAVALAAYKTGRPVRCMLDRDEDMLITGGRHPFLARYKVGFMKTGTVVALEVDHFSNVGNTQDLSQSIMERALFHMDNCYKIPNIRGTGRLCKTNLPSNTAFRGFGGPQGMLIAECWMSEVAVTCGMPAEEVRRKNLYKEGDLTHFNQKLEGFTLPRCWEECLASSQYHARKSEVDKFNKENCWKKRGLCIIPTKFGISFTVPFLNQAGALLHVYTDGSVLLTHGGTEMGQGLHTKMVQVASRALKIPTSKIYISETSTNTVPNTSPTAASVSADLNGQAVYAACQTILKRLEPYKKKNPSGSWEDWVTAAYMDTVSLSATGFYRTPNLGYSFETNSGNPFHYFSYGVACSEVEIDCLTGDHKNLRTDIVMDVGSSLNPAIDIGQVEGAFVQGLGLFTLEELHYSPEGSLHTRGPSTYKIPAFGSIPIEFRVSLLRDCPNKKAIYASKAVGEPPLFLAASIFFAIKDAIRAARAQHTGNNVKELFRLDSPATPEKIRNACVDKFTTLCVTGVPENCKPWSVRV
# MLEC [1] = experiment: Wound healing assay (endothelial cell migration); assay type: cell-based, mouse; conditions: NOX1-deficient MLEC, 10 µM, compared to untreated NOX1-deficient cells
# Experimental: Wound healing assay was performed as described previously. Briefly, endothelial cells were plated in Matrigel (Becton Dickinson) precoated 96 wells plates. One day after plating the cell monolayer was scratched to make a regular wound. Cells were allowed to migrate overnight. Migration area was then measured and calculated using the Metamorph program (MDS Analytical Technologies).
# MLEC [2] = experiment: Endothelial cell sprouting assay (tube-like structure formation, 3D culture); assay type: cell-based, mouse; conditions: NOX1-deficient MLEC, 10 µM, compared to untreated NOX1-deficient cells
# Experimental: Sprouting assay was performed as described previously. Briefly, endothelial cells were plated in 96 well plates at 8,000 cells per well in a 3D fibrin gel. Above the gel, 10% FCS containing DMEM was complemented with 200 KIU/ml of Aprotinin (Sigma). Length of branches was evaluated using the Metamorph program. Results are expressed in mm of skeleton length/number of cells.
# tEnd siRNA NOX1 = experiment: Quantitative real-time PCR of target genes in NOX1-silenced endothelial cell line; assay type: cell-based, mouse
# Experimental: Total RNA from treated cells was extracted using RNeasy minikit (Qiagen). Total RNA was reverse-transcribed with the Superscript III first strand RT-PCR kit (Invitrogen). Quantitative real-time PCR was performed using SybrGreen master mix (Applied Biosystems) on Step one plus Real-time PCR machine (Applied Biosystems). Primer sequences are listed in the Materials and Methods S1.
# For mouse cells, siRNAs were nucleofected using the Amaxa technology (Lonza). Gene silencing was assessed 48 hours after nucleofection by quantitative RT-PCR. For HUVEC, shRNA vectors (SABiosciences) were nucleofected using Amaxa. Gene silencing was assessed 48 hours after nucleofection by quantitative RT-PCR.
# [3] = system: NOX1-silenced endothelial cell lines; experiment: p65 NF-κB nuclear translocation after VEGF or bFGF stimulation (Western blot, immunofluorescence); assay type: cell-based, mouse; conditions: 10 µM before stimulation with VEGF and bFGF
# Experimental: After stimulation, nuclear and cytoplasmic proteins of endothelial cells were extracted according to Tauzin et al.. Briefly, cells were incubated in TKM buffer (50 mM Tris-HCl pH 7.4, 25 mM KCl, 5 mM MgCl2 and 1 mM EGTA) containing 1% Triton and protease inhibitor cocktail CLAP [10 µg/ml chymostatin, leupeptin, antipain and pepstatin A (Sigma) for 30 minutes on ice, sonicated for 2 minutes and centrifuged at 5000 g for 30 minutes. The pellet and the supernatant were separated and solubilized in sample buffer.
# Cells were stimulated for the indicated time and then lysed in TNT buffer (50 mM Tris, 150 mM NaCl, 0.5% Triton X-100) complemented with protease inhibitor cocktail CLAP and phosphatase inhibitor cocktail [25 mM NaF, 20 mM b-Glycerophosphate, 5 mM HEPES, 2.5 mM EDTA, 0.5 mM Orthovanadate]. Membranes were blocked in PBS containing 0.5% BSA and hybridized with different antibodies.
# [4] = tEnd siRNA NOX1 + GW 6471, compared to control cells
compound,measurement,setting,value
"c1ccc([I+]c2ccccc2)cc1 [DPI, Diphenyliodonium, reference compound]",Ki,NOX1,70 ± 10 nM
same,Ki,NOX2,70 nM
same,Ki,NOX4,70 nM
same,Ki,xanthine oxidase,50 nM
CCC(=O)NC[C@H](Cc1ccc(OCCc2nc(-c3ccccc3)oc2C)cc1)N/C(C)=C\C(=O)c1ccc(C(F)(F)F)cc1 [GW6471],cell migration of NOX1-deficient MLEC,MLEC [1],restored
same,tube formation of NOX1-deficient MLEC,MLEC [2],restored
same,PPARα up regulation in NOX1-silenced cells,"tEnd siRNA NOX1; NOX1-silenced cells incubated with antagonist, data not shown",no longer observed
same,"Catalase expression, fold increase or decrease",tEnd siRNA NOX1; [4],0.92±0.012 fold
same,"GPX3 expression, fold increase or decrease",tEnd siRNA NOX1; [4],0.70±0.01 fold
same,"MMP-2 expression, fold increase or decrease",tEnd siRNA NOX1; [4],2.13±0.24 fold
same,"MMP-9 expression, fold increase or decrease",tEnd siRNA NOX1; [4],0.47±0.07 fold
same,"VCAM-1 expression, fold increase or decrease",tEnd siRNA NOX1; [4],0.57±0.18 fold
same,"VE-cadherin expression, fold increase or decrease",tEnd siRNA NOX1; [4],0.9±0.2 fold
same,"VEGF expression, fold increase or decrease",tEnd siRNA NOX1; [4],0.68±0.04 fold
same,"bFGF expression, fold increase or decrease",tEnd siRNA NOX1; [4],0.64±0.25 fold
same,"uPAR expression, fold increase or decrease",tEnd siRNA NOX1; [4],1.34±0.6 fold
same,deficient nuclear translocation of NF-kB in NOX1-silenced cells,[3],no longer observed
